Blank lines part the entries; values can stand above or below the compound they belong to. Where no end group is shown, it is not given here.
How the values were obtained:
[1] = molecular target: T1, pSer33/Ser37 β-catenin peptide binding to β-TrCP (Homo sapiens, UniProt P35222+Q9Y297); test: TR-FRET peptide binding and cooperativity assay, pSer33/Ser37 peptide; settings: ratio of peptide KD without and with saturating enhancer; pSer33/Ser37
T1 construct: titrating BODIPY-FL-labeled β-catenin peptides (residues 17-48) against 300 pM β-TrCP; 6xHis-SMT3 (N, cleaved yes); made in house; host or cells: E. coli (co-expressed with BirA)
T1 sequence (Q9Y297 1-569 isoform Q9Y297-2): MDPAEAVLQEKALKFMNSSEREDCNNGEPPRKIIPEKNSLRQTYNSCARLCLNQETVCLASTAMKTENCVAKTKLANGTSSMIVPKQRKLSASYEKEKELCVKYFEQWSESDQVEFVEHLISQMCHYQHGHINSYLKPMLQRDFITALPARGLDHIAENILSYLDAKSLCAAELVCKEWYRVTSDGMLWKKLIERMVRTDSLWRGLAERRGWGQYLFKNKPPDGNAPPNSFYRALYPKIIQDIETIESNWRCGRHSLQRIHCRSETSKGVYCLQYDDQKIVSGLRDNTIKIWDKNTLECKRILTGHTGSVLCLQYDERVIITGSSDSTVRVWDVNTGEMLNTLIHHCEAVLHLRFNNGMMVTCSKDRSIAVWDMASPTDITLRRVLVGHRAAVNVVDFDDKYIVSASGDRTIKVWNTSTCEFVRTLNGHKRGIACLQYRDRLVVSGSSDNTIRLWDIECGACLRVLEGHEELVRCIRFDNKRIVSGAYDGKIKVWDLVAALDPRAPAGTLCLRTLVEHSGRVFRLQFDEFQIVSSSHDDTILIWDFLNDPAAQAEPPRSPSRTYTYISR
T1 sequence (P63208 whole entry partner, the tested form may be a part): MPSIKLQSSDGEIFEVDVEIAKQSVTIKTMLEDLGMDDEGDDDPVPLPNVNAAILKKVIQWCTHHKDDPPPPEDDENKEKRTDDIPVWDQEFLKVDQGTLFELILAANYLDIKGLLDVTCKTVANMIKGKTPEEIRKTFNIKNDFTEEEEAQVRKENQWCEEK
T1 sequence (P35222 17-48 limits assumed): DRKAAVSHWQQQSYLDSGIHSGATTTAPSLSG
Description: (§1) Compounds were incubated in a 20 μl reaction volume with 300 pM biotinylated β-TrCP/Skp1 preincubated with 1.2 nM terbium-coupled streptavidin (Cisbio) and BODIPY-FL labeled β-catenin peptides (see figure legends for peptide details) in a white 384-well microplate (Perkin Elmer ProxiPlate), using a PBS buffer containing 0.01% Triton X-100 and 2 mM DTT with 2% final DMSO. […] Following 1-h incubation, plates were read for TR-FRET signal after excitation at 320 nm and read at 520 and 620 nm using an EnVision plate reader (Perkin Elmer). TR-FRET signal was calculated using a 520/620 nm ratio. Binding and enhancement data were fit to a standard Hill equation (Y = Bmin + (Bmax − Bmin)(X^h)/(X^h + EC50^h)) in Prism (GraphPad). Errors are standard error of the fit.

[2] = molecular target: T2, pSer33/S37A β-catenin peptide binding to β-TrCP (Homo sapiens, UniProt P35222+Q9Y297, S37A); test: TR-FRET binding enhancement assay, pSer33/S37A peptide
T2 construct: titrating BODIPY-FL-labeled β-catenin peptides (residues 17-48) against 300 pM β-TrCP; 6xHis-SMT3 (N, cleaved yes); made in house; host or cells: E. coli (co-expressed with BirA)
T2 sequence (Q9Y297 1-569 isoform Q9Y297-2, stated change not applied): as the sequence (Q9Y297 1-569 isoform Q9Y297-2) above
T2 sequence (P63208 whole entry partner, the tested form may be a part): as the sequence (P63208 whole entry partner, the tested form may be a part) above
T2 sequence (P35222 17-48 S37A limits assumed): as the sequence (P35222 17-48 limits assumed) above, with S21A counted along it
Description: as §1

[3] = molecular target: T3, pSer33/Ser37 β-catenin:β-TrCP interaction (Homo sapiens, UniProt P35222+Q9Y297); test: TR-FRET binding enhancement assay, pSer33/Ser37 peptide
T3 construct: titrating BODIPY-FL-labeled β-catenin peptides (residues 17-48) against 300 pM β-TrCP; 6xHis-SMT3 (N, cleaved yes); made in house; host or cells: E. coli (co-expressed with BirA)
Description: as §1

[4] = molecular target: T4, pSer33/Ser37 β-catenin peptide ubiquitylation by SCFβ-TrCP (Homo sapiens, UniProt P35222+Q9Y297); test: In vitro ubiquitylation of pSer33/Ser37 β-catenin peptide; type: biochemical
T4 construct: fluorescently-labeled β-catenin peptide (residues 17–60) were ubiquitylated; 6xHis-SMT3 (N, cleaved yes); made in house; host or cells: E. coli (β-TrCP1/Skp1); E. coli or SF9 (Cul1-Rbx1)
T4 sequence (Q9Y297 1-569 isoform Q9Y297-2): as the sequence (Q9Y297 1-569 isoform Q9Y297-2) above
T4 sequence (P63208 whole entry partner, the tested form may be a part): as the sequence (P63208 whole entry partner, the tested form may be a part) above
T4 sequence (Q13616 whole entry partner, the tested form may be a part): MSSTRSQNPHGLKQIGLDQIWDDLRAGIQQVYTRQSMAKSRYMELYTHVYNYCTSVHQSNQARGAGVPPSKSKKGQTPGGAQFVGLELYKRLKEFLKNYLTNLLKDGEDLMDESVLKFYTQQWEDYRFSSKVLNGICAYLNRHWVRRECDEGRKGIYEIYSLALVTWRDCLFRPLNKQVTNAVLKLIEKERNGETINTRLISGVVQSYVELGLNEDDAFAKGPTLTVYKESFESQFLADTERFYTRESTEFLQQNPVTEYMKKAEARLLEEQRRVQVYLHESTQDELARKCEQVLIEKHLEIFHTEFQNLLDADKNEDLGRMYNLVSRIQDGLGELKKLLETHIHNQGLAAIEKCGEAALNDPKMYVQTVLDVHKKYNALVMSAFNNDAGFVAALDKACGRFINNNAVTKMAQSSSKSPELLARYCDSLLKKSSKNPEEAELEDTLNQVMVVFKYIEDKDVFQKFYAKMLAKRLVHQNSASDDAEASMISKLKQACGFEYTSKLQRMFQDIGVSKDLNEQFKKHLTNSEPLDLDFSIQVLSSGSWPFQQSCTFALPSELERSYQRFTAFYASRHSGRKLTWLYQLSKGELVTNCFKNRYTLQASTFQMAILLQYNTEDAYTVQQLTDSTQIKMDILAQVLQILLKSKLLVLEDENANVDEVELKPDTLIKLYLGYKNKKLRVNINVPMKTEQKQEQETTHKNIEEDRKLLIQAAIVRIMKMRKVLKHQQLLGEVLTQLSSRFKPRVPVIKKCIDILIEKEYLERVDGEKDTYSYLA
T4 sequence (P62877 whole entry partner, the tested form may be a part): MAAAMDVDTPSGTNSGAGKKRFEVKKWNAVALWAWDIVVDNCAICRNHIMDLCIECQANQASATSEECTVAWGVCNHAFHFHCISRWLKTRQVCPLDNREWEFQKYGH
T4 sequence (Q15843 1-76 partner limits assumed): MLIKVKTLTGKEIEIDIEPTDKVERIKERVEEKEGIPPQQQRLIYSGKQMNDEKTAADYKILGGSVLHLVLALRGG
T4 sequence (P35222 17-60 limits assumed): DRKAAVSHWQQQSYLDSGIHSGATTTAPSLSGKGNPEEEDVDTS
Description: (§2) Four micromolar of fluorescently-labeled β-catenin peptide (residues 17–60) were ubiquitylated in a buffer containing 25 mM Tris Cl (pH 7.5), 50 mM NaCl, 5 mM MgCl2, 2 mM ATP, and 1 mM DTT at room temperature in the presence of 62.5 μM Ubiquitin, 125 nM Ube1, 1.75 μM Cdc34A, and 100 nM neddylated SCF^β-TrCP in the presence or absence of compound (as indicated). Typically, individual reaction mixes with either Ubiquitin, Ube1 and Cdc34A or β-catenin, SCF^β-TrCP and compound were preincubated and subsequently mixed to initiate β-catenin ubiquitylation. Reactions were quenched by SDS loading buffer, resolved by SDS-PAGE and imaged for fluorescence. For full length β-catenin protein ubiquitylation 400 nM β-catenin and 400 nM SCF^β-TrCP were used instead.

[5] = molecular target: T2, pSer33/S37A β-catenin peptide binding to β-TrCP; test: TR-FRET peptide binding and cooperativity assay, pSer33/S37A peptide
Description: as §1

[6] = molecular target: T5, S33E/S37A β-catenin peptide binding to β-TrCP (Homo sapiens, UniProt P35222+Q9Y297, S33E/S37A); test: TR-FRET peptide binding assay, S33E/S37A peptide; settings: read-out: binding affinity of S33E/S37A peptide
T5 construct: titrating BODIPY-FL-labeled β-catenin peptides (residues 17-48) against 300 pM β-TrCP; 6xHis-SMT3 (N, cleaved yes); made in house; host or cells: E. coli (co-expressed with BirA)
T5 sequence (Q9Y297 1-569 isoform Q9Y297-2, stated change not applied, one chain of several): as the sequence (Q9Y297 1-569 isoform Q9Y297-2) above
T5 sequence (P63208 whole entry partner, one chain of several, the tested form may be a part): as the sequence (P63208 whole entry partner, the tested form may be a part) above
Description: as §1

[7] = molecular target: T6, S33E/S37A β-catenin peptide ubiquitylation by SCFβ-TrCP (Homo sapiens, UniProt P35222+Q9Y297, S33E/S37A); test: In vitro ubiquitylation of S33E/S37A β-catenin peptide; type: biochemical; settings: 20 μM compound
T6 construct: fluorescently-labeled S33E/S37A β-catenin peptide (residues 17–60) was ubiquitylated; 6xHis-SMT3 (N, cleaved yes); made in house; host or cells: E. coli (β-TrCP1/Skp1); E. coli or SF9 (Cul1-Rbx1)
Description: as §2

[8] = molecular target: T7, full-length S33E/S37A β-catenin protein ubiquitylation by SCFβ-TrCP (Homo sapiens, UniProt P35222+Q9Y297, S33E/S37A); test: In vitro ubiquitylation of full-length S33E/S37A β-catenin protein; type: biochemical; settings: 20 μM compound
T7 construct: 6xHis-SMT3 (N, cleaved yes); host or cells: HEK293T (β-catenin); E. coli (β-TrCP1/Skp1); E. coli or SF9 (Cul1-Rbx1)
Description: as §2

[9] = molecular target: T5, S33E/S37A β-catenin peptide binding to β-TrCP; test: TR-FRET binding enhancement assay, S33E/S37A peptide; settings: 1% binding saturation
Description: as §1

[10] = molecular target: T8, pSer33/S37A β-catenin peptide ubiquitylation by SCFβ-TrCP (Homo sapiens, UniProt P35222+Q9Y297, S37A); test: In vitro ubiquitylation of pSer33/S37A β-catenin peptide; type: biochemical
T8 construct: fluorescently-labeled β-catenin peptide (residues 17–60; as indicated) was ubiquitylated; 6xHis-SMT3 (N, cleaved yes); made in house; host or cells: E. coli (β-TrCP1/Skp1); E. coli or SF9 (Cul1-Rbx1)
Description: as §2

β-TrCP = molecular target: T9, β-TrCP (Homo sapiens, UniProt Q9Y297); test: TR-FRET peptide binding in absence of compound
T9 construct: 6xHis-SMT3 (N, cleaved yes); made in house; host or cells: E. coli (co-expressed with BirA)
T9 sequence (Q9Y297 1-569 isoform Q9Y297-2): as the sequence (Q9Y297 1-569 isoform Q9Y297-2) above
T9 sequence (P63208 whole entry partner): as the sequence (P63208 whole entry partner, the tested form may be a part) above
Description: as §1

- cooperativity of binding [1]: 13 fold
- EC50 [2]: 22.9 ± 1.4 µM
- EC50 [3]: 80 ± 4 µM
- ligand concentration at which ubiquitin chain formation resembles WT pSer33/pSer37 peptide [4]: ≥ 16 μM
- enhancement of ubiquitylation of pSer33/Ser37 β-catenin peptide ([4]; peptide residues 17–60): markedly enhances
Compound: O=C(O)c1cccc(NC(=O)c2c(Oc3ccccc3)cc(C(F)(F)F)[nH]c2=O)c1 [NRX-2663]

- cooperativity of peptide binding to β-TrCP [5]: 1000 fold
- Kd [6]: 0.022 µM
- ubiquitylation of S33E/S37A β-catenin peptide [7]: robust time-dependent ubiquitylation
- ubiquitylation of full-length S33E/S37A β-catenin protein [8]: strongly ubiquitylated
- EC50 [9]: 3.9 ± 0.1 µM
- concentration giving ubiquitylation greater than WT pSer33/pSer37 levels [10]: 250 nM
Compound: O=C(O)c1cccc(NC(=O)c2c(Sc3c(Cl)cccc3Cl)cc(C(F)(F)F)[nH]c2=O)c1 [NRX-103094]

- decrease in binding affinity relative to pSer33/S37A peptide (β-TrCP): > 10 fold
Compound: Ac-CDRKAAVSHWQQQSYLDEGIHAGATTTAPSLSG [S33E/S37A]

Source: paper PMC6441019, “Prospective discovery of small molecule enhancers of an E3 ligase-substrate interaction” (Nature Communications, 2019)
